Data published in patent EP0293500A1, “3-heteroalkyl-2,4.quinzaoline-diones” (AMERICAN CYANAMID COMPANY, priority 1987, dated 1988).
Counter-ions that a name gives are not always drawn.

target: T1, thromboxane synthetase (Rattus norvegicus, UniProt P49430); assay: Inhibition of thromboxane (TX) formation (TXB2 radioimmunoassay) in washed rat platelets; assay type: cell-based, Okamoto-Aoki spontaneously hypertensive rats (SHR); conditions: percent inhibition of TXB2 formation; drug at 10^-4M; SHR platelet suspension, 10 minutes at 37 C
T1 construct: The platelets were isolated by centrifuging the PRP for 10 minutes at 1060xg; from tissue; host or cells: washed blood platelets from Okamoto-Aoki spontaneously hypertensive rats (SHR)
T1 sequence (P49430 1-533): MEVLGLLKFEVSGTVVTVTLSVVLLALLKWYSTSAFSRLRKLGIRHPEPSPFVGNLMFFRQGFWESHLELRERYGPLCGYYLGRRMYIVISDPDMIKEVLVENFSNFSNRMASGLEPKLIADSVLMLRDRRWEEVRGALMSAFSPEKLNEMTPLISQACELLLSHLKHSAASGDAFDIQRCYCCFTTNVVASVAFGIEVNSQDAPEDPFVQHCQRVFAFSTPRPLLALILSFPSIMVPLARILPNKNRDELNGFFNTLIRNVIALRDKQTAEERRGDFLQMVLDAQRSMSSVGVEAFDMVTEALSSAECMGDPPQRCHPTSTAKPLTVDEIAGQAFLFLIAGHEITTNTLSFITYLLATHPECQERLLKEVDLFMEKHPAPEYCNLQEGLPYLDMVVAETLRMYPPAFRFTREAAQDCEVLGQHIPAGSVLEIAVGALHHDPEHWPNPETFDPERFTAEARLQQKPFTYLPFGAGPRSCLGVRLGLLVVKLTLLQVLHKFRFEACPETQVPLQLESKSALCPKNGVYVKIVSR
Excerpt: The platelet rich plasma (PRP) was separated. […] The inhibition of thromboxane (TX) formation was studied by determing the concentration of thromboxane […] (TXB2), the stable hydrolysis product of TXA2.

Point of comparison: `O=c1[nH]c2ccc([N+](=O)[O-])cc2c(=O)n1CCCn1ccnc1` [Example 15, 3-[3-(1H-Imidazol-1-yl)propyl]-6-nitro-2,4(1H,3H)-quinazolinedione], inhibition at 100 µM 100%. Against it:
- O=c1c2cccc(C(F)(F)F)c2nnn1CCCCn1ccnc1 [Example 94, 3-[4-(1H-Imida-zol-1-yl)butyl]-8-trifluoro-methyl-1,2,3-benzotriazin-4(3H)-one] — lower, 86%
- O=c1c2cc(Cl)cc(Cl)c2nnn1CCCCn1ccnc1 [Example 81, 6,8-Dichloro-3-[4-(1H-imidazol-1-yl)butyl]-1,2,3-benzotriazin-4(3H)-one, monohydrochloride] — lower, 93%
- O=c1[nH]c2ccc(Cl)cc2c(=O)n1CCCCCn1ccnc1 [Example 32, 6-Chloro-3-[5-(1H-imidazol-1-yl)pentyl]-2,4(1H,3H)-quinazolinedione] — lower, 63%
- O=c1c2cc(Cl)ccc2nnn1CCCCCCCCCCn1ccnc1 [Example 91, 6-Chloro-3-[10-(1H-imidazol-1-yl)decyl]-1,2,3-benzotriazin-4(3H)-one, fumarate] — lower, 80%
- O=c1c2ccccc2nnn1CCCCc1cccnc1 [Example 90, 3-[4-(3-Pyridin-yl)butyl]-1,2,3-benzotriazin-4(3H)-one] — lower, 75%
- O=c1c2cc(Cl)ccc2ncn1CCC(c1ccccc1)n1ccnc1 (centres unmarked) [Example 148, 6-Chloro-3-[3-(1H-imidazol-1-yl)-3-phenylpropyl]-4-(3H)-quinazolinone] — lower, 79%
- O=c1[nH]c2ccc(Br)cc2c(=O)n1CCCn1ccnc1 [Example 51, 6-Bromo-3-[3-(1H-imidazol-1-yl)propyl]-2,4(1H,3H)-quinazolinedione] — the same, 100%
- O=c1c2cc(Br)ccc2ncn1CCCCc1cccnc1 [6-Bromo-3-[4-(3-pyridyl)butyl]-4(3H)-quinazolinone] — lower, 99%
- O=c1c2ccc(Cl)cc2nnn1CCCCn1ccnc1 [Example 80, 7-Chloro-3-[4-(1H-imidazol-1-yl)-butyl]-1,2,3-benzotriazin-4(3H)-one] — lower, 90%
- CC(Cn1ccnc1)Cn1nnc2ccc(Br)cc2c1=O (centres unmarked) [Example 83, 6-Bromo-3-[3-(1H-imidazol-1-yl)--2-methylpropyl]-1,2,3-benzo-triazin-4(3H)-one] — lower, 99%
- O=c1[nH]c2ccc(Cl)cc2c(=O)n1CCCCc1cccnc1 [Example 29, 6-Chloro-3-[4-(3-pyridinyl)butyl]-2,4(1H,3H)-quinazolinedione] — the same, 100%
- O=c1c2cc(Cl)ccc2nnn1CCCCc1cccnc1 [Example 93, 6-Chloro-3-[4-(3-pyridinyl)butyl]-1,2,3-benzotria-zin-4(3H)-one] — lower, 85%
- O=c1[nH]c2c(Cl)cc(Cl)cc2c(=O)n1CCCCn1ccnc1 [Example 46, 6,8-Dichloro-3-[4-(1H-imidazol-1-yl)-butyl]-2,4(1H,3H)-quinazolinedione] — lower, 89%
- CC(Cn1ccnc1)Cn1c(=O)[nH]c2c(Cl)cc(Cl)cc2c1=O (centres unmarked) [Example 48, 6,8-Dichloro-3-[3-(1H-imidazol-1-yl)-2-methylpropyl]-2,4(1H,3H)-quinazoline-dione] — lower, 86%
- O=c1c2ccccc2ncn1CCCCCCn1ccnc1 [Example 136, 3-[6-(1H-Imidazol-1-yl)hexyl]-4(3H)-quinazolinone, dihydrochloride] — lower, 86%
- CC(Cn1ccnc1)Cn1nnc2ccc(Cl)cc2c1=O (centres unmarked) [6-Chloro-3-[3-(1H-imidazol-1-yl)-2-methyl-propyl]-1,2,3-benzotriazin-4(3H)-one, mono-hydrochloride] — lower, 93%
- O=c1c2cccc(C(F)(F)F)c2nnn1CCCCCn1ccnc1 [Example 95, 3-[5-(1H-Imida-zol-1-yl)pentyl]-8-trifluoro-methyl-1,2,3-benzotriazin-4(3H)-one] — lower, 87%
- O=c1[nH]c2ccc(Cl)cc2c(=O)n1CCC(c1ccccc1)n1ccnc1 (centres unmarked) [Example 36, 6-Chloro-3-[3-(1H-imidazol-1-yl)-3-phenylpropyl]-2,4(1H,3H)-quinazolinedione] — lower, 93%
- CC(Cn1ccnc1)Cn1nnc2ccccc2c1=O (centres unmarked) [Example 78, 3-[3-(1H-Imidazol-1-yl)-2-methyl-propyl]-1,2,3-benzotriazin-4(3H)-one, monohydrochloride] — lower, 92%
- CC(Cn1ccnc1)Cn1c(=O)[nH]c2c(Cl)cccc2c1=O (centres unmarked) [Example 45, 8-Chloro-3-[3-(1H-imidazol-1-yl)-2-methylpropyl]-2,4(1H,3H)-quinazolinedione] — lower, 71%
- O=c1c2ccccc2ncn1CCCCc1cccnc1 [Example 135, 3-[4-(3-Pyridyl)butyl]-4(3H)-quina-zolinone, dihydrochloride] — lower, 99%
- CC(Cn1ccnc1)Cn1cnc2ccc(Cl)cc2c1=O (centres unmarked) [Example 141, 6-Chloro-3-[3-(1H-imidazol-1-yl)-2-methylpropyl]-4(3H)quinazolinone] — lower, 94%
- O=c1c2cc(Cl)ccc2ncn1CCCn1ccnc1-c1ccccc1 [Example 144, 6-Chloro-3-[3-(2-phenyl-1H-imidazol-1-yl)propyl]-4(3H)-quinazolinone, dihydro-chloride] — lower, 96%
- Cc1cn(CCCn2nnc3ccc(Cl)cc3c2=O)cn1 [Example 92, 6-Chloro-3-[3-(4-methyl-1H-imida-zol-1-yl)propyl]-1,2,3-benzotria-zin-4(3H)-one] — lower, 85%
- Cc1cn(CCCn2cnc3ccccc3c2=O)cn1 [Example 133, 3-[3-(4-Methyl-1H-imidazol-1-yl)propyl]-4(3H)-quinazolinone] — lower, 74%
- CC(CCn1c(=O)[nH]c2c(Cl)cc(Cl)cc2c1=O)n1ccnc1 (centres unmarked) [Example 47, 6,8-Dichloro-3-[3-(1H-imidazol-1-yl)-butyl]-2,4(1H,3H)-quinazolinedione] — lower, 67%
- O=c1c2cc(Cl)ccc2nnn1CCCCn1ccnc1 [6-Chloro-3-[4-(1H-imidazol-1-yl)butyl]-1,2,3-benzotriazin-4(3H)-one, monohydro-chloride] — lower, 97%
- O=c1[nH]c2ccc(Cl)cc2c(=O)n1CCCn1ccnc1-c1ccccc1 [Example 27, 6-Chloro-3-[3-(2-phenyl-1H-imidazol-1-yl)propyl]-2,4(1H,3H)-quinazolinedione] — lower, 52%
- Cc1ccc2nnn(CC(C)Cn3ccnc3)c(=O)c2c1 (centres unmarked) [Example 85, 3-[3-(1H-Imidazol-1-yl)-2-methyl-propyl]-6-methyl-1,2,3-benzo-triazin-4(3H)-one, monohydro-chloride] — lower, 95%
- O=c1c2cc(Cl)ccc2ncn1CCCCc1cccnc1 [Example 142, 6-Chloro-3-[4-(3-pyridyl)butyl]-4(3H)-quinazolinone] — the same, 100%
- O=c1[nH]c2ccccc2c(=O)n1CCCCc1cccnc1 [Example 22, 3-[4-(3-Pyridinyl)butyl]-2,4(1H,3H)-quinazolinedione] — lower, 99%
